According to patent US9610371B2, “Anticancer therapy” (STC.UNM, priority 2005, dated 2017):
“Also recorded” adds a separate entry of the source. Read-outs that look alike come from different tables or passages of the source. Positions of bridges follow the written chain, without caps; N, C: chain ends. Non-standard residues stand in square brackets, D forms with d. Residues, ends and D or L forms follow the SMILES beside them.

Experiments:
[1] = 25 day toxicology in tumor bearing male Lewis rats; type: in vivo, Lewis rat; details: 25 days; 12.6 MBq ^213Bi-DOTATOC group and DOTATOC control group
Procedure: Toxicology was assessed at 25 days in 4 groups of tumor bearing male Lewis rats (average volume […]). Rats in the first group, Cohort 1, were injected on day 1 only. Rats in second cohort were injected on days 1 and 2, while rats in the third cohort were injected on days 1, 2, and 3. Rats were injected with 2.56 μg, 0.5 μg, 0.5 μg DOTATOC, on day 1, day 2 and day 3, respectively, with a nominal activity of 3.7 MBq. Each dose was divided into 2 injections at 1 hour intervals. The rats received the following cumulative average activities per group: Cohort 1 (N=3) received 4.3±0.7 MBq, Cohort 2 (N=3) received 9.0±0.4 MBq, and Cohort 3 (N=4) received 12.6±0.3 MBq of ^213Bi-DOTATOC. Cohort 4 (N=4) was added as control group and injected twice daily with unlabelled DOTATOC on three consecutive days.
After 24 days, the animals were put into a metabolic cage to collect urine samples for creatinine clearance analysis. Creatine clearance was determined as previously described (20). After 24 hour urine collection, the animals were euthanized with halothane. For blood collection, a cardiac puncture was performed. Blood analysis consisted of hemoglobin (Hgb), hematocrit (Hct), red blood cells (RBC's), and white blood cells (WBC's) with differential, and platelets (Pt's). Additionally T4 and FSH values were assessed using the serum.
Additional groups were then designed to study the effects of the treatment on a somatostatin receptor positive tumor. The first group was designed to study the effects of treatment on large volume tumors (average volume 1720±608 mm^3). This group, Cohort 5 (N=5), received three fractionated doses of ^213Bi-DOTATOC (specific activity 7.4 MBq ^213Bi/1 μG DOTATOC) with a total average cumulative dose of 13.0±0.5 MBq of ^213Bi-DOTATOC. The last cohort, the sixth cohort (N=4), was injected with two fractionated doses, ^213Bi-DOTATOC (specific activity 7.4 MBq ^213Bi/1 μG DOTATOC) with a total average cumulative dose of 22.2±0.7 MBq of ^213Bi-DOTATOC. As described earlier, each dose was divided into 2 injections separated by a 1 hour interval. Tumor response to the treatment was assessed in all cohorts by daily tumor measurements.
Organs were harvested and immediately placed in 10% formalin for a minimum of 48 hours. Following fixation in formalin, bone samples were placed in decalcifying solution for 36 hours. Trimmed organs were sent to the TriCore Laboratories (Albuquerque, N. Mex.) where they were embedded in paraffin, sectioned, and stained with Hematoxylin and Eosin (H and E). Histopathologic evaluation was performed by a board certified veterinary pathologist (DFK) who examined the following organs of each animal: heart, lung, kidneys, testicles, spleen, pancreas, pituitary bone marrow, urinary bladder, adrenals, and two different sections of the liver.
Sections of both the right and left kidneys were examined to determine nephrotoxicity in all cohorts. Bone marrow was examined to evaluate hypoplasia and other lesions in Cohorts 3 and 4. Interstitial nephritis and bone marrow were scored as follows: 0 no lesions, 1 minimal lesions, 2 mild lesions, 3 moderate lesions, and 4 severe lesions.
For the pathology scoring, to evaluate nephrotoxicity on the 6 treatment groups, a frequency analysis was performed in StatXact-5 using the Jonckheere-Terpstra Test. For all other data, graphs and calculations were performed in SigmaStat®-3 and SigmaPlot®-9 as well as Graph Pad Prism®-4 using the t-test. For all statistical tests results were considered significant when p<0.05. Animal biodistribution and tumor volume data are expressed as the average, plus or minus the SEM.

Capan-2 cells [2] = experiment: Cell Death Detection ELISA PLUS apoptosis, gemcitabine pre-treated and non-treated Capan-2; type: cell-based, human; details: 72 hours
Procedure: […] Capan-2 cells and non-treated cells were evaluated using CellTiter-Glo® Luminescent Cell Viability Assay (Promega, Madison, Wis.) and Cell Death Detection ELISA^PLUS10× (Roche Applied Sciences, IN) for apoptosis. Cell viability was evaluated at 24 and 48 hours of incubations.

Capan-2 cells [3] = experiment: CellTiter-Glo Luminescent Cell Viability Assay, gemcitabine pre-treated and non-treated Capan-2; type: cell-based, human
Procedure: Effects of 37 kBq and 370 kBq of ^177Lu labeled DOTATOC and DOTA on gemcitabine pre-treated Capan-2 cells and non-treated cells were evaluated using CellTiter-Glo® Luminescent Cell Viability Assay (Promega, Madison, Wis.) and Cell Death Detection ELISA^PLUS10× (Roche Applied Sciences, IN) for apoptosis. Cell viability was evaluated at 24 and 48 hours of incubations.

Capan-2 = experiment: Apoptosis in Capan-2 cells, with or without gemcitabine pre-treatment; type: cell-based, human; details: Capan-2, 1 μg/mL, FIG. 7
From the text: Alpha emitters such as ^213Bi are known to cause G2M arrest and induce apoptosis in cancer cell lines. Experiments were thus performed to evaluate radiation-induced apoptosis and the radiobiological and radiotherapeutical relevance of this mode of cell death in selection of a radionuclide for therapy.
Activation or down regulation of pro- and anti-apoptotic genes influence cancer cell viability, cancer cell sensitivity to chemotherapy and radiotherapy, and tumor development and progression. A variety of chemotherapeutic agents induce cell death via apoptosis. Gemcitabine is known to induce apoptosis primarily due to Bax overexpression, whereas Bcl-xl is known to reduce gemcitabine-induced apoptosis. In contrast, Capan-2 is […] to Fas-mediated apoptosis. […] The data is expressed as ±S.E.M. of mean apoptosis. […] But when combined with radiolabeled DOTATOC, a synergetic effect on induction of apoptosis is observed.

[4] = tested on: somatostatin receptor binding sites of Capan-2 cells; experiment: Radioligand assay of ^177Lu-DOTATOC binding after gemcitabine pre-treatment; type: cell-based, human; details: 4 days 1 μg/mL pre-treatment and 4 days of replenishment
Procedure: A radioligand assay was performed to evaluate receptor binding by the recognition ligand after pre-treatment of 4 days with 1 μg/mL gemcitabine and 4 days of replenishment.

human sst4 = human sst4 (Homo sapiens, UniProt P31391); details: cited from earlier work
human sst3 = human sst3 (Homo sapiens, UniProt P32745); details: cited from earlier work
human sst2 = human sst2 (Homo sapiens, UniProt P30874); details: cited from earlier work
human sst1 = human sst1 (Homo sapiens, UniProt P30872); details: cited from earlier work
[5] = tested on: human SSTR subtypes (SSTR1-SSTR5); details: cited from earlier work

human sst2, sequence (P30874 whole entry): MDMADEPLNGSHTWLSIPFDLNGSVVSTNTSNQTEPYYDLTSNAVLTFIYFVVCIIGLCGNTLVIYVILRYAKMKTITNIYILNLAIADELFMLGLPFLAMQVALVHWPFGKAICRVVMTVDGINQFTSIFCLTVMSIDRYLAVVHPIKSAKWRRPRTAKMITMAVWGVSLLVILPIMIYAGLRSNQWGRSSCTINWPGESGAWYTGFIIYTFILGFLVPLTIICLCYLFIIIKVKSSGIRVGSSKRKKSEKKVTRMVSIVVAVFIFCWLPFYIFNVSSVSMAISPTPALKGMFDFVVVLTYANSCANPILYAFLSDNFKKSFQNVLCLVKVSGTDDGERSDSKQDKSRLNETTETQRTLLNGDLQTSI
human sst3, sequence (P32745 whole entry): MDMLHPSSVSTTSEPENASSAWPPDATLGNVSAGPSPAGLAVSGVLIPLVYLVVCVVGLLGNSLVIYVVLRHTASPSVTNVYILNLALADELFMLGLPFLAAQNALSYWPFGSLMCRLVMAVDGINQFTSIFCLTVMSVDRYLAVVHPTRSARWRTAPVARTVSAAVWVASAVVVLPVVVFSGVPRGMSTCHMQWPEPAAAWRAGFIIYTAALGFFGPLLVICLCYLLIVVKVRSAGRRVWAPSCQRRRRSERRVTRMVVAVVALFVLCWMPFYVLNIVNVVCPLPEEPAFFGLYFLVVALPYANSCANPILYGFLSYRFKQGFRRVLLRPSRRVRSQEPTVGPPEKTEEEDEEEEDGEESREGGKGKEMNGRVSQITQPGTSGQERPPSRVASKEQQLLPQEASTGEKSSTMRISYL
human sst4, sequence (P31391 whole entry): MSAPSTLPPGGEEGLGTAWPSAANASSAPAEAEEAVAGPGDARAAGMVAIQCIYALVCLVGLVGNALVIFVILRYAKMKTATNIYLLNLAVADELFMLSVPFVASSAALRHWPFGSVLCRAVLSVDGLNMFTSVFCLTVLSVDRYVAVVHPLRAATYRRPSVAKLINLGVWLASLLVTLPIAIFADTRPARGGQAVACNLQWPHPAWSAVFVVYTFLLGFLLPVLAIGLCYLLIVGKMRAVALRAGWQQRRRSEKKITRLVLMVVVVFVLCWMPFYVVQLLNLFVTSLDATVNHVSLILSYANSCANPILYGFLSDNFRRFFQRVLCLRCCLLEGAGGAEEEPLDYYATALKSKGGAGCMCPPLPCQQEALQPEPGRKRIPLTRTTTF
human sst1, sequence (P30872 whole entry): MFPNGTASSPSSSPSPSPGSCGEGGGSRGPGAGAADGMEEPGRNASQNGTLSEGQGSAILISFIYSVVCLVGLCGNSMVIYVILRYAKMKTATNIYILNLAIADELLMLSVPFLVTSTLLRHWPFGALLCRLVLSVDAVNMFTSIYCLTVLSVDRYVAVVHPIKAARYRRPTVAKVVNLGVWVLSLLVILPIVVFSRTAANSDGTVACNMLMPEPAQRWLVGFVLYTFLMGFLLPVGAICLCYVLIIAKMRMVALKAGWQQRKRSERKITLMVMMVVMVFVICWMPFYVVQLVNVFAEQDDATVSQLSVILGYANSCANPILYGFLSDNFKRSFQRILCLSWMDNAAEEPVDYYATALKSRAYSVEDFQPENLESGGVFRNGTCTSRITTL

Compound | affinity for sst4 (human sst4) | affinity for sst3 (human sst3) | affinity for sst2 (human sst2) | affinity for sst1 (human sst1) | other results
C[C@@H](O)[C@@H]1NC(=O)[C@H](CCCCN)NC(=O)[C@@H](Cc2c[nH]c3ccccc23)NC(=O)[C@H](Cc2ccc(O)cc2)NC(=O)[C@@H](NC(=O)[C@@H](Cc2ccccc2)NC(=O)CN2CCN(CC(=O)O)CCN(CC(=O)O)CCN(CC(=O)O)CC2)CSSC[C@@H](C(=O)N[C@H](CO)[C@@H](C)O)NC1=O [DOTATOC, [DOTA^0, Tyr^3] octreotide] |  |  |  |  | bone marrow analysis (hypoplasia, hyperplasia, lesions) [1]: no lesions; effects on the induction of apoptosis (Capan-2 cells [2]; without radiolabel): minimal effects; effects on cell viability (Capan-2 cells [3]; 24 hours, 70 pM and 7 fM, gemcitabine pre-treated and non-treated Capan-2): no significant effects
O=C([O-])CN1CCN(CC(=O)[O-])CCN(CC(=O)[O-])CCN(CC(=O)[O-])CC1.[177Lu+3].[H+] [^177Lu-DOTA] |  |  |  |  | effect on apoptosis, gemcitabine pre-treated vs non-treated Capan-2 (Capan-2 cells [2]): Enhancements of radiation induced apoptosis; effects of radiosensitivity induced by gemcitabine pre-treatment on cell viability (Capan-2 cells [3]; 24 hours, higher doses (370 kBq)): can be observed; effects of radiosensitivity induced by gemcitabine pre-treatment on cell viability (Capan-2 cells [3]; 48 hours, 370 kBq as well as 37 kBq): observed
Nc1ccn([C@@H]2O[C@H](CO)[C@@H](O)C2(F)F)c(=O)n1 [gemcitabine, 2′,2′-difluoro-2′-deoxycytidine] |  |  |  |  | induction of apoptosis by itself (Capan-2): does not induce any significant amount of apoptosis; more binding sites than the non-treated Capan-2 cells [4]: ~70%
CC(C)[C@@H]1NC(=O)[C@H](CCCCN)NC(=O)[C@@H](Cc2c[nH]c3ccccc23)NC(=O)[C@H](Cc2ccc(O)cc2)NC(=O)[C@@H](NC(=O)[C@H](N)Cc2ccc3ccccc3c2)CSSC[C@@H](C(=O)N[C@H](C(N)=O)[C@@H](C)O)NC1=O [lanreotide, D-βNal-Cys-Tyr-D-Trp-Lys-Val-Cys-Thr-NH2] | very low affinity | moderate affinity; also recorded: lower affinity | high affinity | very low affinity | affinity for sst4 (human sst4; listed as LAN): moderate affinity
C[C@@H](O)[C@@H]1NC(=O)[C@H](CCCCN)NC(=O)[C@@H](Cc2c[nH]c3ccccc23)NC(=O)[C@H](Cc2ccccc2)NC(=O)[C@@H](NC(=O)[C@H](N)Cc2ccccc2)CSSC[C@@H](C(=O)N[C@H](CO)[C@@H](C)O)NC1=O [octreotide, D-Phe-Cys-Phe-D-Trp-Lys-Thr-Cys-Thr-OH] | very low affinity | moderate affinity; also recorded: lower affinity | high affinity | very low affinity | affinity for sst4 (human sst4; listed as OCT): little or no affinity
CC(C)[C@@H]1NC(=O)[C@H](CCCCN)NC(=O)[C@@H](Cc2c[nH]c3ccccc23)NC(=O)[C@H](Cc2ccc(O)cc2)NC(=O)[C@@H](NC(=O)[C@H](N)Cc2ccccc2)CSSC[C@@H](C(=O)N[C@@H](Cc2c[nH]c3ccccc23)C(N)=O)NC1=O [vapreotide, D-Phe-Cys-Tyr-D-Trp-Lys-Val-Cys-Trp-NH2] (H-[dF]CY[dW]KVCW-NH2; disulfide 2-7) | moderate affinity | moderate affinity | high affinity | very low affinity | 
SST-24: somatostatin form bound by all 5 human SSTR subtypes; probably a misprint of somatostatin-14 |  |  |  |  | binding to all 5 human SSTR subtypes [5]: high affinity
SST-28: somatostatin variant that is a 28 amino acid peptide |  |  |  |  | binding to all 5 human SSTR subtypes [5]: high affinity
